{"source": "paper PMC8942850", "about": "“Boron clusters as broadband membrane carriers” (Nature, 2022)", "key": {"HeLa cells [1]": {"test_system": "HeLa cells", "assay": "Phalloidin-TRITC delivery, confocal imaging of F-actin staining", "type": "cell-based", "conditions": "living HeLa cells, HKR buffer, 3 h, 500 nM cargo concentration", "experimental": "(§1) Representative images of two biological replicates. […] Scale bars, 50 μm.\nCells were incubated with 7 µM phalloidin-TRITC (red) in the absence (left) and presence of 50 µM ^AcR8 (middle) or 50 µM of B12Br12^2− cluster (right) in HKR buffer for 3 h, subsequently stained with Hoechst (blue), washed with DMEM without phenol red, and imaged by confocal fluorescence microscopy; bright-field images in insets. Micrographs from each cell line were processed independently, experiments were performed twice. e, MTT viability assay of the corresponding cell lines (HeLa, GT1-7, ARPE-19 and A549, from left to right) at different concentrations (0, 25, 75, 250, and 500 µM) of B12Br12^2− (black) or ^AcR8 (red); data are mean ± s.d. of five measurements. f, Confocal images of HeLa cells after incubation with 500 nM phalloidin-TRITC and different concentrations B12Br12^2−; the images correspond to those of Fig. 4 in the main text, but are shown with increased brightness to facilitate observation of the actin filaments. Representative images of two biological replicates. All scale bars are […], except for panel f (50 µm). Source data"}, "[2]": {"conditions": "gold standard in the field; cited from earlier work", "source_text": "U-tube transport experiments, across a bulk chloroform layer, unambiguously confirmed that the brominated cluster served as a non-covalent carrier across a hydrophobic bulk barrier (Extended Data Fig. 2a, b). To quantitatively characterize the transport efficiency of the new cluster carriers, the normalized fluorescence responses in the vesicle experiments (Fig. 2b) were plotted against cluster concentration to produce dose–response curves (Fig. 2c and Extended Data Fig. 3a). We extracted, by Hill analysis, the salient parameters: the maximal activity (Ymax), the concentration needed to achiev ..."}, "[3]": {"assay": "HPTS/DPX transport assay in zwitterionic EYPC vesicles", "type": "in vitro ADME", "parameters": "key to Et: Et = Ymax × (pEC50/ft); pEC50 = −log EC50", "experimental": "The well-established HPTS/DPX assay, which uses 8-hydroxypyrene-1,3,6-trisulfonate (HPTS) and p-xylene-bis-pyridinium (DPX), was implemented to monitor peptide-transport activation (Fig. 2a). […] A surfactant (Triton X-100) was added at the end of the experiment (t = 600 s) to release all vesicle content and normalize the fluorescence intensity data.\nFig. 2 Carrier activity obtained from the HPTS/DPX assay. a, Schematic representation of the transport of otherwise impermeable analytes facilitated by superchaotropic cluster anions with encapsulated HPTS/DPX probe/quencher pair used for signalling. […] Concentrations of carrier and cargo, when fixed, were 40 and 20 µM, respectively, unless explicitly stated. Source data\nA thin lipid film was prepared by evaporating a lipid solution with a stream of nitrogen and then dried in vacuo overnight.\nFluorescence intensities were normalized to fractional emission as I(t) = (It − I0)/(I∞ − I0), where I0 = It before cluster addition and I∞ = It after lysis.\nIn the activator measurements, in which different activators were tested with the same cargo, the activator efficiency (Ea) is determined from their ability to activate the transport of an impermeable cargo molecule and is characterized by Ymax, its maximal activity, and EC50, the effective activator concentration. A potent activator reaches high Ymax at low EC50. To reflect both factors, the activator efficiency is defined as Ea = Ymax × (pEC50/fa), where pEC50 is the negative logarithm of EC50.\nIn the transport measurements, in which different types of cargo were tested with the same activator, the transport efficiency (Et) reports on the sensitivity of the cargo for being transported and is described by Ymax, the maximal activity, and EC50, the effective cargo concentration. An easily accessible cargo reaches high Ymax at low EC50. The transport efficiency is defined as a composition of both parameters according to Et = Ymax × (pEC50/ft), where pEC50 is the negative logarithm of EC50.\nExtended Data Fig. 3 Transport activity. a, Transport activity, Y, in EYPC⊃HPTS/DPX vesicles as a function of cluster concentration at constant cargo concentration (WR7, 20 µM). b, Transport activity, Y, for B12Br12^2− (40 µM) in EYPC⊃HPTS/DPX vesicles as a function of the concentration of different cargo types; red lines correspond to the resulting fit with the Hill equation. Source data"}, "HeLa cells [4]": {"test_system": "HeLa cells", "assay": "Confocal imaging of TAMRA-R8 / TAMRA-D-R8 / TAMRA uptake in living cells", "conditions": "HeLa, 1, 10 or 50 µM TAMRA, 10 µM B12Br12^2− in HKR, 1 h", "source_text": "as §1\nRepresentative images of two biological replicates. […] Source data\n(1 picture or pasted object on this page, not shown here)"}, "[5]": {"test_system": "Escherichia coli Top10 strain", "assay": "Kanamycin A delivery in E. coli (OD570 growth)", "type": "cell-based", "conditions": "for mean_norm_OD570: LB, 37 °C, 18 h, mean of triplicate", "experimental": "As a proof-of-principle, we investigated its potential to reduce the minimum inhibitory concentration of kanamycin A, an aminoglycoside antibiotic. Aminoglycosides function by binding to the bacterial 30S ribosomal subunit; consequently, effective passage through the cell wall and plasma membrane is essential for aminoglycosides to reach their intracellular targets. […]\nA preculture of E. coli Top10 cells was incubated overnight in LB medium with 50 µg ml^−1 streptomycin sulfate. […] After 18 h, the optical density at 570 nm, as an indicator of bacterial growth, was measured with a Tecan Infinite F200Pro microplate reader. Data were normalized for each concentration of B12Br12^2− relative to the control condition without antibiotic.\nSolid points indicate mean ± s.d. of three technical replicates. […] Cross-bars indicate mean ± s.d. of three independent experiments (two with technical triplicates, one with technical duplicates); values obtained in each experiment are represented by different shapes. c, Viability of HeLa cells after incubation with different doses of MMAF in the presence of 0, 5 and 10 μM B12Br12^2−. Solid points indicate mean ± s.d. of three technical replicates. d, Corresponding IC50 values of MMAF. […] Source data"}}, "note": "Like-named read-outs stand apart in the source and are kept apart here."}
{"compound": "Phalloidin-TRITC", "values": [{"measurement": "F-actin staining after B12Br12^2−-triggered membrane passage", "setting": "HeLa cells [1]", "result": "excellent staining of the F-actin target"}]}
{"compound": "O=C(O)CCCc1ccc2ccc3cccc4ccc1c2c34", "note": "[Pyrenebutyrate (1), pyrenebutyrate, reference compound]", "values": [{"measurement": "Ea activator efficiency", "setting": "[2]", "result": "≈ 5"}, {"measurement": "Ea activator efficiency", "setting": "[3]; Ea = Ymax × (pEC50/fa), fa = 20.6, WR7 (20 μM) cargo, 10% error (SD)", "result": 4.9}, {"measurement": "Activation of oligolysine (WK7) membrane transport", "setting": "[3]; WK7 cargo, HPTS/DPX assay", "result": "fails to trigger any signal"}, {"measurement": "Ymax (%) maximal activity, carrier activity", "setting": "[3]; carrier concentration varied, WR7 (20 μM) as common cargo, EYPC⊃HPTS/DPX vesicles, 13 µM lipid, 10 mM Tris, 107 mM NaCl, pH 7.4, HPTS fluorescence, Hill analysis, 10% error (SD) unless stated, n.a. = no detectable activity, d.l. = dye leakage, no determination possible", "result": 100, "unit": "%"}, {"measurement": "Activity as activator for the newly introduced targets", "setting": "[3]; membrane-impermeable analytes (100 µM), HPTS/DPX assay", "result": "no activity"}, {"measurement": "EC50", "setting": "[3]; read-out: EC50 (μM) effective carrier concentration to reach 50% of Ymax, carrier concentration varied, WR7 (20 μM) as common cargo, EYPC⊃HPTS/DPX vesicles, pH 7.4, Hill analysis, 10% error (SD) unless stated, n.a. = no detectable activity, d.l. = dye leakage, no determination possible", "result": 103, "unit": "µM"}]}
{"compound": "TAMRA [reference compound]", "values": [{"measurement": "Transport of non-conjugated dye by B12Br12^2−", "setting": "HeLa cells [4]", "result": "not carried"}]}
{"compound": "kanamycin A", "values": [{"measurement": "mean_norm_OD570", "setting": "[5]; Kanamycin 3 µg/mL, B12Br12 0, normalised to no-antibiotic control", "result": 68.2744}, {"measurement": "mean_norm_OD570", "setting": "[5]; Kanamycin 3 µg/mL, B12Br12 500 mM, normalised to no-antibiotic control at same B12Br12", "result": 9.048}, {"measurement": "mean_norm_OD570", "setting": "[5]; Kanamycin 3 µg/mL, B12Br12 750 mM, normalised to no-antibiotic control at same B12Br12", "result": 0.7906}, {"measurement": "mean_norm_OD570", "setting": "[5]; Kanamycin 3 µg/mL, B12Br12 1000 mM, normalised to no-antibiotic control at same B12Br12", "result": 0.4633}, {"measurement": "mean_norm_OD570", "setting": "[5]; Kanamycin 2.5 mg/mL, B12Br12 0 (so in the source), normalised to no-antibiotic control", "result": 70.6541}, {"measurement": "mean_norm_OD570", "setting": "[5]; Kanamycin 2.5 mg/mL, B12Br12 500 mM (so in the source), normalised to no-antibiotic control at same B12Br12", "result": 24.7877}, {"measurement": "mean_norm_OD570", "setting": "[5]; Kanamycin 2.5 mg/mL, B12Br12 750 mM (so in the source), normalised to no-antibiotic control at same B12Br12", "result": 9.686}, {"measurement": "mean_norm_OD570", "setting": "[5]; Kanamycin 2.5 mg/mL, B12Br12 1000 mM (so in the source), normalised to no-antibiotic control at same B12Br12", "result": 14.0089}, {"measurement": "mean_norm_OD570", "setting": "[5]; Kanamycin 3.5 mg/mL, B12Br12 0 (so in the source), normalised to no-antibiotic control", "result": 58.481}, {"measurement": "mean_norm_OD570", "setting": "[5]; Kanamycin 3.5 mg/mL, B12Br12 500 mM (so in the source), normalised to no-antibiotic control at same B12Br12", "result": 0.383}, {"measurement": "mean_norm_OD570", "setting": "[5]; Kanamycin 3.5 mg/mL, B12Br12 750 mM (so in the source), normalised to no-antibiotic control at same B12Br12", "result": 0.005219}, {"measurement": "mean_norm_OD570", "setting": "[5]; Kanamycin 3.5 mg/mL, B12Br12 1000 mM (so in the source), normalised to no-antibiotic control at same B12Br12", "result": 0.103}, {"measurement": "E. coli viability, absence of cluster", "setting": "[5]; kanamycin A 3.5 µg ml^−1, no B12Br12^2−", "result": 60, "unit": "%"}, {"measurement": "E. coli viability, presence of the cluster carrier", "setting": "[5]; kanamycin A 3.5 µg ml^−1 with B12Br12^2−", "result": "< 1", "unit": "%"}, {"measurement": "Et transport efficiency", "setting": "[3]; Et = Ymax × (pEC50/ft), ft = 19.8 so that WR7 equals 10.0, B12Br12^2− (40 μM) carrier, 5% error (SD) unless stated", "result": "1.7 ± 0.2"}, {"measurement": "Et", "setting": "[3]; Fig.2 d, per analyte (cargo)", "result": 1.7}, {"measurement": "Ymax (%) maximal activity, transport of cargo", "setting": "[3]; cargo concentration varied, B12Br12^2− (40 μM) as common carrier, EYPC⊃HPTS/DPX vesicles, 13 µM lipid, 10 mM Tris, 107 mM NaCl, pH 7.4, HPTS fluorescence, Hill analysis, 10% error (SD) unless stated, n.t. = no detectable transport", "result": "54 ± 6", "unit": "%"}, {"measurement": "EC50", "setting": "[3]; read-out: EC50 (μM) effective cargo concentration to reach 50% of Ymax, cargo concentration varied, B12Br12^2− (40 μM) as common carrier, EYPC⊃HPTS/DPX vesicles, pH 7.4, Hill analysis, 10% error (SD) unless stated, n.t. = no detectable transport", "result": "235 ± 70", "unit": "µM"}]}
